In brackets after ≈: the same amount, converted by molar mass.
Tests used:
[1] = system: Lewis Lung Carcinoma (3LL) Cell Line, subline H-59; assay: XTT cytotoxicity assay, Lewis Lung Carcinoma 3LL (H-59) cells; type: cell-based; settings: Mus musculus, read-out: IC50, doxorubicin (concentration producing 50% inhibition of cell growth)
Experimental: A highly metastatic clonal Lewis Lung Carcinoma cell subline H-59 (3LL) was used to evaluate cytotoxic activity of Prep. C and compare it with that of doxorubicin. To this end, the cells were suspended in RPMI 1640 medium supplemented with 10% fetal calf serum, and plated at 2000-3000 cells/well into 96-well microtiter plates. Prep. C in which doxorubicin final concentrations varied from 1 to 10,000 ng/ml was added to the cells and incubated for 2 hours at 37° C. and 5% CO2. The cells were then washed three times with RPMI 1640 and cultured for 4 days. Drug cytotoxicity was determined by a standard XTT assay. To this end, sterile 1 mg/ml XTT solution in RPMI 1640 containing 5 μl/ml of 1.54 μg/ml phenazine methasulfate solution in sterile PBS was added to the cells (100 μl/well) and incubated for 4 to 16 hours at 37° C. and 5% CO2. The absorbance at λ420 was determined using a microplate reader. All the experiments were carried out in triplicate. SEM values were less than 10% (P<0.05). the concentrations of free doxorubicin and doxorubicin in Prep.

[2] = system: Lewis Lung Carcinoma (3LL-H59); assay: Metastasis development after i.v. inoculation of 3LL-H59 cells; type: in vivo, Female C57BL/6 mice; settings: Dox 5.0 mg/kg, L61 0.25% w/v, PEG8000 1% w/v, Days 1, 4, 7, 10 animals per group
Experimental: A highly metastatic clonal subline H59 of Lewis Lung, Carcinoma (3LL-H59) was used as a model. […] These cells were cultured in D-MEM supplemented with 10% FCS at 37° C. in a humidified atmosphere with 5% CO2. After 7 to 10 passes in culture, the cells in their logarithmic growth phase were harvested with trypsin for the following experiments.
Animals. Female C57BL/6 mice were obtained from Charles River Canada Inc. (St. Constant, Quebec, Canada) and used at 6 to 7 weeks of age. Animals were grouped five per cage with air filter cover under a light (12-h light/dark cycle, light on at 06h00) and temperature-controlled environment (22 ±1° C.). All manipulations of animals were performed under a sterilized laminar. The animals had ad libitum access to Purina Mouse Chow (Pro Lab PMH 4018, Trademark of Agway, Syracuse, N.Y.) and water. […]
At Day 16 after tumor inoculation, the animals were sacrificed and subjected to routine metastasis inspection. All organs were routinely screened, although metastatic formations were normally detected only in the lung. […] The data are expressed as means±SEM for the number of metastatic sites and as the percentage of the animals having metastasis for the incidence of metastasis development. Statistical significance was calculated according to the multiple range test of Duncan-Kramer. […]

Structure (SMILES): COc1cccc2c1C(=O)c1c(O)c3c(c(O)c1C2=O)C[C@@](O)(C(=O)CO)C[C@@H]3O[C@H]1C[C@H](N)[C@H](O)[C@H](C)O1 [Doxorubicin, doxorubicin]
- IC50 [1]: 0.11 µg/mL (≈ 0.202 µM)
- Incidence (animals having metastasis) ([2]; Day 16): 100%
- Number of metast. sites on lung periphery ±SEM ([2]; counted Day 16): 8.90 ± 2.56

From patent US6060518A, “Polymer compositions for chemotherapy and methods of treatment using the same” (Supratek Pharma Inc., priority 1996, dated 2000)
